Source: the NIST ThermoML archive (doi:10.1016/j.tca.2008.10.017)

Assay: molar heat capacity at constant pressure
Conditions: 101.33 kPa, Crystal 2, Small (less than 1 g) adiabatic calorimetry

CCCC[N+](CCCC)(CCCC)CCCC.[I-] [tetrabutylammonium iodide]
Conditions	molar heat capacity at constant pressure [J/K/mol]
120 K	230.8
122.11 K	233.2
124.58 K	236.3
127.05 K	239.3
129.51 K	242.1
130 K	242.9
131.98 K	245.1
134.46 K	248.1
136.93 K	251
139.4 K	253.8
140 K	254.4
141.88 K	256.5
144.36 K	259.3
146.84 K	262.3
149.32 K	264.6
150 K	265.4
151.8 K	267.5
154.28 K	270.5
156.76 K	273
159.25 K	275.4
160 K	276.3
161.68 K	277.9
164.17 K	280.8
166.66 K	283.6
169.14 K	286.4
170 K	287.1
171.63 K	288.8
174.12 K	291.3
179.09 K	296.7
180 K	297.8
181.58 K	299.2
184.06 K	302
186.55 K	304.6
189.03 K	307.5
190 K	308.6
191.52 K	310
194 K	312.6
196.48 K	315.8
198.96 K	318.2
200 K	319.4
201.37 K	321.1
203.83 K	324
206.3 K	326.7
208.78 K	329.1
210 K	330.4
211.25 K	332.3
213.73 K	334
216.22 K	337
218.7 K	339.9
220 K	341.7
221.19 K	342.7
223.68 K	345.9
226.17 K	348.6
228.67 K	351.6
230 K	353.2
231.16 K	354.6
233.66 K	357.7
235.16 K	359.3
237.7 K	362.3
238.66 K	363.9
240 K	365.1
241.12 K	366.7
243.63 K	369.8
246.14 K	372.6
248.65 K	375.9
250 K	377.4
251.17 K	379.2
253.68 K	382.1
256.2 K	385.3
258.72 K	388.5
260 K	390.2
261.24 K	392
263.76 K	395.2
266.29 K	398.2
268.81 K	401.5
270 K	403.3
271.34 K	405
273.15 K	407.6
273.87 K	408.1
276.4 K	411.5
278.93 K	415
280 K	416.9
281.43 K	418.6
283.96 K	421.7
286.49 K	425.5
289.02 K	429.5
290 K	430.8
291.54 K	433.4
294.07 K	436.3
296.58 K	439.9
298.15 K	442.5
299.1 K	443.6
300 K	445.2
301.98 K	449.2
305.32 K	453.3
308.64 K	459.7
310 K	460.1
311.93 K	464
315.18 K	468.4
318.42 K	473.1
320 K	475.7
321.63 K	477.8
324.82 K	483
327.99 K	488.3
330 K	492.4
331.13 K	493.9
334.25 K	499.5
337.34 K	505.8
340 K	511
340.41 K	511.9
343.45 K	518.1
346.47 K	524.6
349.45 K	530.9
350 K	532.3
352.15 K	537.6
